# Assay results published in PubChem BioAssay (NCI).
# “And” between values parts separate entries of the source, which are not always exact repeats. Equal values may be shown once.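 Compound exposure: 48 hours, 5 concentrations, 96-well plates. Here, GI50 denotes the concentration required for 50% inhibition of growth. Definition used: TGI = concentration required for complete inhibition of growth.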
# Tests used:
# Assay in all cases: NCI anticancer screen, dose series, 48 h
# [1] = system: U251 CNS
# [2] = system: HOP-92 NSCLC
# [3] = system: CAKI-1 renal
# [4] = system: DMS 273 small cell lung
# [5] = system: A549 NSCLC
# [6] = system: SR leukemia
# [7] = system: DLD-1 colon
# [8] = system: NCI-H522 lung
# [9] = system: SF-295 CNS
# [10] = system: HT29 colon
# [11] = system: KM20L2 colon
# [12] = system: BT-549 breast
# [13] = system: RXF 393 renal
# [14] = system: MDA-MB-231 breast
Compound,TGI [1],TGI [2] [µM],TGI [3],TGI [4] [µM],TGI [5],TGI [6],TGI [7] [µM],TGI [8],TGI [9],TGI [10],TGI [11] [µM],TGI [12] [µM],TGI [13] [µM],GI50 [14] [µM],GI50 [3],GI50 [12] [µM],GI50 [9],GI50 [13] [µM],TGI [14],GI50 [6]
OCC1O[C@H](O[C@@H]2CCCN3CC(O)C(O)[C@@H]23)C(O)C(O)C1O (some centres undefined),> 100 µM,> 100,> 100 µM,> 100,> 100 µM,> 100 µM,> 100,> 100 µM,> 100 µM,> 100 µM,> 100,–,–,–,–,–,–,–,–,–
COc1cc(OC2OC(CO)C(O)C(O)C2O)c2c(O)c3c(=O)cc(C)oc3cc2c1 (centres undefined),> 100 µM,–,> 100 µM,–,> 100 µM,–,–,> 100 µM,> 100 µM,> 100 µM,–,> 100,–,–,–,–,–,–,–,–
S=c1sc2c(s1)SC(c1ccccc1)CS2 (centres undefined),> 100 µM,> 100,> 100 µM,> 100,> 100 µM,–,> 100,> 100 µM,> 100 µM,> 100 µM,> 100,–,91.5,–,–,–,–,–,–,–
CCCCCC(=O)N[C@@H](c1ccco1)[C@@H](O)C(=O)O[C@H]1C[C@@]2(O)[C@@H](OC(=O)c3ccccc3)[C@@H]3[C@]4(OC(C)=O)CO[C@@H]4C[C@H](O)[C@@]3(C)C(=O)[C@H](OC(C)=O)C(=C1C)C2(C)C,> 25 µM,> 25,–,–,–,> 25 µM,–,0.00228 µM,0.0284 µM,> 25 µM,–,–,–,0.00211,0.329 µM,0.00109,0.0009 µM,0.000206,–,–
CCNC(=O)C(C)C1CCC2(C)C=CC(=O)C(C)=C2C1O (centres undefined),> 100 µM,> 100,> 100 µM,> 100,> 100 µM,–,> 100,> 100 µM,> 100 µM,> 100 µM,> 100,–,> 100,–,–,–,–,–,–,–
Nc1nc(Nc2ccc(Cl)c(Cl)c2)nc2nc[nH]c12,36.5 µM,33.5,25.1 µM,–,33.6 µM,33.2 µM,–,29.3 µM,35.7 µM,30.6 µM,–,25.8,20.1,–,–,–,–,–,31.3 µM,–
C[N+](C)(CCCCCC[N+](C)(C)CCCN1C(=O)c2cccc3cccc(c23)C1=O)CCCN1C(=O)c2cccc3cccc(c23)C1=O,> 100 µM,> 100,> 100 µM,–,> 100 µM,> 100 µM,–,> 100 µM,> 100 µM,> 100 µM,–,> 100,> 100,–,–,–,–,–,> 100 µM,–
N#C/C(=C\c1ccncc1)c1csc2ccccc12,61.9 µM,51.7,> 88 µM,73.6,> 100 µM,–,96.9,41.9 µM,> 100 µM,48.2 µM,54.6,–,> 83.1,–,–,–,–,–,–,–
O=C1OC(c2ccccc2)=NC1c1ccccc1 (centres undefined),> 100 µM,> 100,> 100 µM,–,> 100 µM,> 100 µM,–,> 100 µM,> 100 µM,> 100 µM,–,> 100,> 100,–,–,–,–,–,> 100 µM,–
Cc1ccc(/C=C2\Sc3scc(-c4ccccc4)[n+]3C2=O)cc1,47.5 µM,> 49.7,33.4 µM,–,> 84.3 µM,26.4 µM,–,19.6 µM,> 70.3 µM,56.9 µM,–,50.9,90.2,–,–,–,–,–,65 µM,–
O=C(NN1C(=O)C(Cl)C1c1ccccc1O)c1ccccc1O (centres undefined),> 100 µM,> 100,–,–,> 100 µM,> 100 µM,–,> 100 µM,> 100 µM,> 100 µM,> 100,–,> 100,–,–,–,–,–,–,–
O=[N+]([O-])C(=C/c1ccccc1)/C(=C\c1ccccc1)[N+](=O)[O-],29 µM,39.8,29 µM,–,78.8 µM,–,–,–,36.2 µM,31.4 µM,–,31.4,33.5,–,–,–,–,–,26.2 µM,–
O=NN1C(c2ccccc2)CNC(=O)CC1c1ccccc1 (centres undefined),> 100 µM,> 100,> 100 µM,> 100,> 100 µM,–,> 100,46.8 µM,98.8 µM,> 100 µM,63.5,–,81.1,–,–,–,–,–,–,–
FC(F)(F)c1ccc2c(c1)N(CCCNCCN1CCOCC1)c1ccccc1S2,23.7 µM,11.2,–,36.7,28.3 µM,21.8 µM,33.7,30.6 µM,27.4 µM,10.4 µM,17,–,9.11,–,–,–,–,–,–,–
O=C(Nc1ccc([N+](=O)[O-])cc1)Nn1cnnc1,> 100 µM,> 100,> 100 µM,–,> 100 µM,> 100 µM,–,> 100 µM,63.4 µM,> 100 µM,–,69.7,–,–,–,–,–,–,–,–
COc1ccccc1/C=C(/C)[N+](=O)[O-],4.19 µM and 3.43 µM,5.72,4.85 µM and 1.92 µM,–,8.66 µM and 5.18 µM,1.61 µM and 5.08 µM,–,2.91 µM and 3.2 µM,20 µM and 6.33 µM,12.6 µM and 9.89 µM,–,–,4.74,–,2.13 µM and 0.687 µM,–,5.31 µM and 2.53 µM,1.74,17.7 µM and 7.87 µM,0.237 µM and 1.5 µM
OCC#CCNCl,> 100 µM,> 100,–,> 100,> 100 µM,–,> 100,> 100 µM,> 100 µM,> 100 µM,> 100,–,> 100,–,–,–,–,–,–,–
